Laboratory results: patent US6528656B1, “Linear or cyclic aminophosphonates as pH markers in phosphorus 31 NMR spectroscopy” (Centre National de la Recherche Scientifique (CNRS), priority 1998, dated 2003)
Read-outs that look alike come from different tables or passages of the source.

Tests used:
tumour cell line = details: cited from earlier work
[1] = test system: myocardial or liver cells; assay: toxicity, cell penetration and 31P NMR pH measurement in myocardial or liver cells; type: cell-based
Description: The compounds of formulae (II.1) and (II.2) are on the whole particuarly non-toxic and penetrate into myocardial or liver cells (in sufficient amount to be observed but in a sufficiently small amount to remain non-toxic), thus allowing a measurement of the pH values of intracellular and extracellular media.

physchem [2] = type: physicochemical; details: 37° C., 5 mM solution in phosphate buffer, 400 MHz NMR, from titration curve
Description: The results obtained allowed titration curves to be plotted.
Each measurement was taken at 37° C. using a 5 mM solution of the test compound in a phosphate buffer on a 400 MHz NMR spectroscopy machine.
The variation in the phosphorus-31 chemical shift was studied as a function of the pH: the measurements were taken at 22° C., or 37° C. respectively, on a 400 MHz NMR machine using 5 mM solutions of the test compound in a phosphate buffer.

physchem [3] = assay: physchem

Which metabolism (tumour cell line) does the source give for O=CC[C@@H](O)[C@H](O)[C@H](O)COP(=O)(O)O [2-deoxyglucose 6-phosphate, 2-Deoxyglucose 6-phosphate] here?
Its metabolism is “not metabolized”.

What about the toxicity (tumour cell line) of the same molecule?
Its toxicity is “toxic to the cell”.

Which results are given for CCOP(=O)(OCC)C1(C)CCCN1 (centres unmarked) [Compound 1, 2-methyl-2-diethoxyphosphorylpyrrolidine]?
variations in the phosphorus chemical shift as a function of intracellular acidosis versus intracellular Pi ([1]; in the course of ischaemia, cytosolic medium): fully correlated; pH measurements in liver compartments (extracellular, cytosolic, intravesicular medium) ([1]; liver, very acidic (pH 5) vesicles): allows three measurements at the same time

Which results are given for CCOP(=O)(OCC)C1(P(=O)(OCC)OCC)CCCN1 [Compound 2, 2,2-bis(diethoxyphosphoryl) pyrrolidine]?
pKa (physchem [2]): 3.47; pKa (physchem [3]): 3.5

Which pKa (physchem [2]) does the source give for CC(C)OP(=O)(OC(C)C)C1(P(=O)(OC(C)C)OC(C)C)CCCN1 [Compound 3, 2,2-bis(diisopropoxyphosphoryl) pyrrolidine] here?
Its pKa is 3.9.

Which pKa (physchem [2]) does the source give for CCOP(=O)(OCC)C1(C)CCC(C)(P(=O)(OCC)OCC)N1 (centres unmarked) [Compound 4, 2,5-bis(diethoxyphosphoryl)-2,5-dimethylpyrrolidine] here?
Its pKa is 2.45.
